# According to patent US20230158025A1 (UNIVERSITY OF UTAH RESEARCH FOUNDATION, priority 2020, published 2023):
# Like-named read-outs stand apart in the source and are kept apart here.
# How the values were obtained:
# [1] = rat microsomal stability (RLM)
# [2] = PAMPA permeability
# [3] = target: recombinant mouse GALK1 (Mus musculus, UniProt Q9R0N0); experiment: mGALK1 biochemical activity assay (Kinase-Glo Plus, ATP depletion)
# How it was run: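 Recombinant GALK1 (5 nM) with 100 μM galactose; GALK1 turnover read as ATP depletion by Kinase-Glo Plus luminescence. Reaction ran 1 h at room temperature before detection reagent was added.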
# [4] = aqueous kinetic solubility
# [5] = target: recombinant human GALK1 (Homo sapiens, UniProt P51570); experiment: hGALK1 biochemical activity assay (Kinase-Glo Plus, ATP depletion)
# Chain of recombinant human GALK1 (P51570 whole entry): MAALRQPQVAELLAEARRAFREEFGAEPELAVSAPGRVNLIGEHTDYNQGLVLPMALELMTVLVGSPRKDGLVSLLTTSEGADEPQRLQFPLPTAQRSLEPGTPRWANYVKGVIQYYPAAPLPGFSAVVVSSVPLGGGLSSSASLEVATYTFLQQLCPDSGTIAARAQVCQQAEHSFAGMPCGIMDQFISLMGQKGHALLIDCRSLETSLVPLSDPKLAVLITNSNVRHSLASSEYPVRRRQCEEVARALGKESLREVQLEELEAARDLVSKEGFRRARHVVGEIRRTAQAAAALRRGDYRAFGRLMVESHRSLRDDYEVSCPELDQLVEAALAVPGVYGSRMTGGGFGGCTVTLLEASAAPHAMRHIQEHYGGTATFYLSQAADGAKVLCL
# How it was run: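 Recombinant human or mouse GALK1 (5 nM, with 100 μM galactose, in the added enzyme solution) was run with ATP (35 μM in the substrate solution) in HEPES pH 8.0 buffer. Compounds were tested at 11 1/3-step concentrations from 57.4 μM to 0.97 nM. After 1 h at room temperature, remaining ATP was read by Kinase-Glo Plus luminescence.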
# [6] = Tables 2-15, 35 μM ATP, 100 μM galactose, 1 h, bracketed figure after some values is undefined and not reported, read-out: mGALK IC50
# [7] = recombinant mouse GALK1, Kinase-Glo Plus ATP depletion, read-out: mGALK
# [8] = Tables 2-15, 35 μM ATP, 100 μM galactose, 1 h, bracketed figure after some values (e.g. −1.2) is undefined and not reported, read-out: hGALK IC50
# [9] = recombinant human GALK1, Kinase-Glo Plus ATP depletion, read-out: hGALK
# Chain of recombinant mouse GALK1 (Q9R0N0 whole entry): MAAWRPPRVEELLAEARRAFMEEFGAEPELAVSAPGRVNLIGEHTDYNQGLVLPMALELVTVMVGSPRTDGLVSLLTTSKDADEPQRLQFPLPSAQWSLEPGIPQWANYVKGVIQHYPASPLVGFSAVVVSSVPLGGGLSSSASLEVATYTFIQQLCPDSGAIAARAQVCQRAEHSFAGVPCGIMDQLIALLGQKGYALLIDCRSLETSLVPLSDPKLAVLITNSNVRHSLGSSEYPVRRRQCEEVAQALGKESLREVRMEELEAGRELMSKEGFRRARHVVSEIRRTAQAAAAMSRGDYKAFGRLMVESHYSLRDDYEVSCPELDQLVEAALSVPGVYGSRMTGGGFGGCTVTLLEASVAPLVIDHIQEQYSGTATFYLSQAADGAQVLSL
SMILES,Metab. Stabil. (m) ([1]; microsomal half-life),Perm. (1 × 10^−6 cm/sec) [2],"IC50 [3, 6] [µM]","IC50 [3, 7] [µM]",Sol. [4] [µg/mL],"IC50 [5, 8] [µM]","IC50 [5, 9] [µM]",Metab. Stabil. (m) ([1]; microsomal stability half-life),Perm. (1 × 10^−6 cm/sec) ([2]; PAMPA),Sol. ([4]; aqueous kinetic solubility) [µg/mL],"Metab. Stabil. (m) ([1]; microsomal stability half-life, minutes)","IC50 ([3]; recombinant mouse GALK1, Kinase-Glo Plus ATP depletion, bracketed figure in the cell, e.g. (−1.2), is not defined in the text shown, read-out: mGALK) [µM]","IC50 ([5]; recombinant human GALK1, Kinase-Glo Plus ATP depletion, bracketed figure in the cell, e.g. (−1.2), is not defined in the text shown, read-out: hGALK) [µM]"
"CCn1cc(CNC(=O)C2=C(C)NC(Nc3nc4ccc(F)cc4o3)=NC2c2ccc(C)cc2Cl)cn1 (centres unmarked) [Compound 112, 4-(2-chloro-4-methylphenyl)-N-((1-ethyl-1H-pyrazol-4-yl)methyl)-2-((6-fluorobenzo[d]oxazol-2-yl)amino)-6-methyl-1,4-dihydropyrimidine-5-carboxamide]",9.22,<21.9 1 × 10^−6 cm/sec,6.85,6.85,<1,1.22,1.22,–,–,–,–,–,–
"CC1=C(C(=O)Nc2cccc(CO)c2)C(c2ccccc2Cl)N=C(Nc2nc3ccccc3o2)N1 (centres unmarked) [Compound 144, 2-(benzo[d]oxazol-2-ylamino)-4-(2-chlorophenyl)-N-(3-(hydroxymethyl)phenyl)-6-methyl-1,4-dihydropyrimidine-5-carboxamide]",–,–,9.68,9.68,–,–,3.85,>30,1124.1 1 × 10^−6 cm/sec,<1,–,–,–
"CC1=C(C(=O)Nc2cc(C(=O)O)ccn2)[C@@H](c2ccc(C)cc2Cl)N=C(Nc2nc3ccc(F)cc3o2)N1 [Compound 56, (S)-2-(4-(2-chloro-4-methylphenyl)-2-((6-fluorobenzo[d]oxazol-2-yl)amino)-6-methyl-1,4-dihydropyrimidine-5-carboxamido)isonicotinic acid]",>30,<1 1 × 10^−6 cm/sec,6.85,6.85,53.8,1.93,1.93,–,–,–,–,–,–
"CC1=C(C(=O)Nc2nnc(-c3cccnc3)s2)C(c2ccccc2Cl)N=C(Nc2nc3ccc(F)cc3o2)N1 (centres unmarked) [Compound 100, 4-(2-chlorophenyl)-2-((6-fluorobenzo[d]oxazol-2-yl)amino)-6-methyl-N-(5-(pyridin-3-yl)-1,3,4-thiadiazol-2-yl)-1,4-dihydropyrimidine-5-carboxamide]",>30,<9.9 1 × 10^−6 cm/sec,–,38.5,<1,–,17.2,–,–,–,–,–,–
"CC1=C(C(=O)Nc2ccc(C#N)cn2)C(c2ccccc2Cl)N=C(Nc2nc3ccc(F)cc3o2)N1 (centres unmarked) [Compound 40, 4-(2-chlorophenyl)-N-(5-cyanopyridin-2-yl)-2-((6-fluorobenzo[d]oxazol-2-yl)amino)-6-methyl-1,4-dihydropyrimidine-5-carboxamide]",>30,<7.8 1 × 10^−6 cm/sec,–,13.7,<1,–,13.7,–,–,–,–,–,–
"CC1=C(C(=O)Nc2cc(C(=O)O)ccc2F)C(c2ccccc2Cl)N=C(Nc2nc3ccc(F)cc3o2)N1 (centres unmarked) [Compound 30, 3-(4-(2-chlorophenyl)-2-((6-fluorobenzo[d]oxazol-2-yl)amino)-6-methyl-1,4-dihydropyrimidine-5-carboxamido)-4-fluorobenzoic acid]",>30,2.2 1 × 10^−6 cm/sec,–,6.85,35.7,–,2.17,–,–,–,–,–,–
"CC1=C(C(=O)NCc2cnn(C)c2)[C@@H](c2ccc(C)cc2Cl)N=C(Nc2nc3cccc(N)c3o2)N1 [Compound 116, (S)-2-((7-aminobenzo[d]oxazol-2-yl)amino)-4-(2-chloro-4-methylphenyl)-6-methyl-N-((1-methyl-1H-pyrazol-4-yl)methyl)-1,4-dihydropyrimidine-5-carboxamide]",7.868,326.9 1 × 10^−6 cm/sec,–,30.6,21.9,–,12.2,–,–,–,–,–,–
"CCOc1ccc(C2N=C(Nc3nc4ccc(F)cc4o3)NC(C)=C2C(=O)Nc2cc(C(=O)O)ccn2)c(Cl)c1 (centres unmarked) [Compound 67, 2-(4-(2-chloro-4-ethoxyphenyl)-2-((6-fluorobenzo[d]oxazol-2-yl)amino)-6-methyl-1,4-dihydropyrimidine-5-carboxamido)isonicotinic acid]",>30,<1 1 × 10^−6 cm/sec,3.85,3.85,11.3,0.69,0.69,–,–,–,–,–,–
"CC1=C(C(=O)Nc2cc(C#N)ccn2)C(c2ccccc2Cl)N=C(Nc2nc3ccc(F)cc3o2)N1 (centres unmarked) [Compound 39, 4-(2-chlorophenyl)-N-(4-cyanopyridin-2-yl)-2-((6-fluorobenzo[d]oxazol-2-yl)amino)-6-methyl-1,4-dihydropyrimidine-5-carboxamide]",>30,<6.8 1 × 10^−6 cm/sec,4.85,4.85,<1,4.32,4.32,–,–,–,–,–,–
"CC1=C(C(=O)Nc2cc(C(=O)O)ccn2)C(c2ccc(C)cc2Cl)N=C(Nc2nc3c(o2)CCCC3)N1 (centres unmarked) [Compound 109, 2-(4-(2-chloro-4-methylphenyl)-6-methyl-2-((4,5,6,7-tetrahydrobenzo[d]oxazol-2-yl)amino)-1,4-dihydropyrimidine-5-carboxamido)isonicotinic acid]",>30,<1.8 1 × 10^−6 cm/sec,4.32,4.32,>52,3.06,3.06,–,–,–,–,–,–

# Second part, the compound after the results:
Metab. Stabil. (m) ([1]; microsomal half-life),Perm. (1 × 10^−6 cm/sec) [2],"IC50 [3, 6] [µM]","IC50 [3, 7] [µM]",Sol. [4] [µg/mL],"IC50 [5, 8] [µM]","IC50 [5, 9] [µM]",Metab. Stabil. (m) ([1]; microsomal stability half-life),Perm. (1 × 10^−6 cm/sec) ([2]; PAMPA),Sol. ([4]; aqueous kinetic solubility) [µg/mL],"Metab. Stabil. (m) ([1]; microsomal stability half-life, minutes)","IC50 ([3]; recombinant mouse GALK1, Kinase-Glo Plus ATP depletion, bracketed figure in the cell, e.g. (−1.2), is not defined in the text shown, read-out: mGALK) [µM]","IC50 ([5]; recombinant human GALK1, Kinase-Glo Plus ATP depletion, bracketed figure in the cell, e.g. (−1.2), is not defined in the text shown, read-out: hGALK) [µM]",SMILES
–,–,13.7,13.7,–,7.69,7.69,11.45,15.0 1 × 10^−6 cm/sec,<1,–,–,–,"CC1=C(C(=O)Nc2ccc(N(C)C)cc2)C(c2ccccc2Cl)N=C(Nc2nc3ccccc3o2)N1 (centres unmarked) [Compound 152, 2-(benzo[d]oxazol-2-ylamino)-4-(2-chlorophenyl)-N-(4-(dimethylamino)phenyl)-6-methyl-1,4-dihydropyrimidine-5-carboxamide]"
–,–,2.17,2.17,–,0.43,0.43,3.55,187.9 1 × 10^−6 cm/sec,1.53,–,–,–,"CCn1nc(C)c(CNC(=O)C2=C(C)NC(Nc3nc4ccc(F)c(N)c4o3)=NC2c2ccc(C)cc2Cl)c1F (centres unmarked) [Compound 129, 2-((7-amino-6-fluorobenzo[d]oxazol-2-yl)amino)-4-(2-chloro-4-methylphenyl)-N-((1-ethyl-5-fluoro-3-methyl-1H-pyrazol-4-yl)methyl)-6-methyl-1,4-dihydropyrimidine-5-carboxamide]"
–,–,3.06,3.06,–,–,3.43,>30,<1 1 × 10^−6 cm/sec,>74,–,–,–,"CC1=C(C(=O)Nc2ccnc(C(=O)O)c2)C(c2ccccc2Cl)N=C(Nc2nc3ccccc3o2)N1 (centres unmarked) [Compound 203, 4-(2-(benzo[d]oxazol-2-ylamino)-4-(2-chlorophenyl)-6-methyl-1,4-dihydropyrimidine-5-carboxamido)picolinic acid]"
–,–,–,8.63,–,–,0.48,14.14,289.5 1 × 10^−6 cm/sec,4.6,–,–,–,"CCn1cc(CNC(=O)C2=C(C)NC(Nc3nc4cccc(N)c4o3)=NC2c2ccc(Cl)cc2Cl)cn1 (centres unmarked) [Compound 120, 2-((7-aminobenzo[d]oxazol-2-yl)amino)-4-(2,4-dichlorophenyl)-N-((1-ethyl-1H-pyrazol-4-yl)methyl)-6-methyl-1,4-dihydropyrimidine-5-carboxamide]"
–,–,–,–,–,–,–,–,31.9 1 × 10^−6 cm/sec,<1,>30,5.44,3.85,"COc1ccc(C2N=C(Nc3nc4ccccc4o3)NC(C)=C2C(=O)Nc2nncs2)c(Cl)c1 (centres unmarked) [Compound 266, 2-(benzo[d]oxazol-2-ylamino)-4-(2-chloro-4-methoxyphenyl)-6-methyl-N-(1,3,4-thiadiazol-2-yl)-1,4-dihydropyrimidine-5-carboxamide]"
–,–,–,2.17,–,–,0.19,17.72,133.5 1 × 10^−6 cm/sec,23.87,–,–,–,"CCn1cc(CNC(=O)C2=C(C)NC(Nc3nc4ccc(F)c(N)c4o3)=NC2c2ccccc2Cl)cn1 (centres unmarked) [Compound 136, 2-((7-amino-6-fluorobenzo[d]oxazol-2-yl)amino)-4-(2-chlorophenyl)-N-((1-ethyl-1H-pyrazol-4-yl)methyl)-6-methyl-1,4-dihydropyrimidine-5-carboxamide]"
11.3,360.4 1 × 10^−6 cm/sec,3.06,–,2.43,–,0.17,–,–,–,–,–,–,"CCn1cc(CNC(=O)C2=C(C)NC(Nc3nc4cccc(N)c4o3)=NC2c2ccc(C)cc2Cl)cn1 (centres unmarked) [Compound 117, 2-((7-aminobenzo[d]oxazol-2-yl)amino)-4-(2-chloro-4-methylphenyl)-6-methyl-N-((1-ethyl-1H-pyrazol-4-yl)methyl)-1,4-dihydropyrimidine-5-carboxamide]"
